# PubChem BioAssay (NCI)
# Several values for one entry are separate records, joined by “and”; a condition that tells them apart may be missing. Identical values can stand only once.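 Where inhibition never reached the appropriate level, the endpoint shown equals the highest concentration tested. Otherwise, values were interpolated linearly from a five-concentration, 48-hour dose response in 96-well plates. GI50 is the concentration that inhibits growth by half. TGI is the concentration that stops growth completely.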
# Legend:
# Assay in all cases: NCI anticancer screen, dose series, 48 h
# [1] = system: A549 NSCLC
# [2] = system: CAKI-1 renal
# [3] = system: CCRF-CEM leukemia
# [4] = system: HCC-2998 colon
# [5] = system: HOP-62 NSCLC
# [6] = system: KM20L2 colon
# [7] = system: M19-MEL melanoma
# [8] = system: SF-295 CNS
# [9] = system: SK-OV-3 ovarian
# [10] = system: TK-10 renal
Structure (SMILES),TGI [1] [µM],GI50 [2],TGI [2] [µM],TGI [3] [µM],TGI [4] [µM],TGI [5] [µM],TGI [6] [µM],TGI [7] [µM],GI50 [8],TGI [8] [µM],TGI [9] [µM],TGI [10] [µM]
OC(CBr)C(O)C(O)C(O)CBr (configuration not stated),> 100,9.66 µM and 44.7 µM,> 100,> 100,> 100,> 100,> 100,> 100,23.2 µM and > 72.9 µM,> 100,> 100,> 100
O=S(=O)(O)c1ccc([Se][Se]c2ccc(S(=O)(=O)O)cc2)cc1,> 100,,> 100,> 100,> 100,> 100,> 100,> 100,,> 100,> 100,> 100
CCCCCCCCCCCCCC(=O)OCC1OC(=O)C(O)C1O (configuration not stated),> 100,,> 100,> 100,> 100,> 100,> 100,> 100,,> 100,> 100,> 100
CCC(/C(=N/NC(=O)C[N+](C)(C)C)c1ccccc1)C1OC(=O)c2ccccc21 (configuration not stated),> 100,,> 100,> 100,> 100,> 100,> 100,> 100,,> 100,> 100,> 100
COc1ccc(/C=C2\CCC(C)(CN(C)C)C2=O)cc1Br (configuration not stated),> 100,,> 91.6,> 80.5,35.8,97,17.7,32.4,,80.7,70.5,44
O=C(NNC(=O)/C(=C/c1cccc([N+](=O)[O-])c1)NC(=O)c1ccccc1)Nc1ccc(Cl)cc1,31.4,,40.2,31.2,25.8,29.6,32.4,29.1,,34.3,32.1,31.7
